Data set [1] can be described thus: Stability and metabolite identification on mouse hepatocytes. The data set is classed as in vitro ADME. The settings on record: 20 µM, 5 h. How it is done: (§1) The stability of the compound was studied on hepatocyte cultures from Wistar rats and CD1 mice. The compound was incubated at 20 µM in the presence of 1.106 cells/mL for 5 h. The incubation was then stopped with acetonitrile (v/v) and the supernatant, after a brief centrifugation (2500 rpm, 5 min 4 °C) was submitted to LC-MS analysis, using a THERMO […] coupled to a Waters Acquity UPLC System equipped with a Waters Acquity UPLC C18 100 × 2.1 mm 1.7 µm column.

A short description of data set [2]: Stability and metabolite identification on rat hepatocytes. The data set is classed as in vitro ADME. The settings on record: 20 µM, 5 h. How it is done:
as §1

For data set [3], the target named is T1, human MCH-R1 (Homo sapiens, UniProt Q99705).
T1 construct: expressed in transfected cells
Put plainly: MCH-induced cytosolic Ca2+ ion mobilization, antagonist effect. In kind it is cell-based. The settings on record: for Ki: antagonism of MCH-induced cytosolic Ca2+ mobilization, read-out: Ki (functionality, antagonism at MCH-R1). The method, then: The functional assay was run onto cells expressing the hMCH-R1 receptor, as described in Wang et al.. In brief, the cells are suspended in DMEM buffer (Invitrogen), then distributed in microplates at a density of 4.104 cells/well. The fluorescent probe (Fluo4 Direct, Invitrogen) mixed with probenecid in Hanks’ Balanced Salt solution (HBSS) (Invitrogen) complemented with 20 mM HEPES (Invitrogen) (pH 7.4) is then added into each well and equilibrated with the cells for 60 min at 37 °C, then 15 min at 22 °C. Then, the assay plates are positioned in a microplate reader (CellLux, PerkinElmer) which is used for the addition of the test compound, reference agonist or HBSS buffer (basal control), and the measurements of changes in fluorescence intensity, which varies proportionally to the free cytosolic Ca^2+ ion concentration. For stimulated control measurements, MCH at 300 nM is added in separate assay wells. The results are expressed as a percentage of the control response to 300 nM MCH. The standard reference agonist is MCH, which is tested in each experiment at several concentrations to generate a concentration-response curve from which its EC50 value is calculated. For the antagonist effect, the results are expressed as a percentage inhibition of the control response to 30 nM MCH, which was added to all tested wells and controls 5 min after the candidate products.

Data set [4] has as its target T1, human MCH-R1. The experiment in a line: Binding displacement of [125I]-[Phe13,Tyr19]-MCH at membranes expressing human MCH-R1. How it is done: Stable cell lines were obligatory for all receptor programs. We cloned the human receptor and established the cell line as previously described. In brief, HEK293 (HEK) cells were grown in Dulbecco’s Modified Eagle medium (DMEM) supplemented with 10% fetal calf serum, 2 mM glutamine, 100 IU/mL penicillin and […] streptomycin. They were seeded at 5 × 10^6 cells in T75 cm^2 culture flasks. One day later, they were transfected with […] of the pcDNA3.1 (Invitrogen, Groningen, The Netherlands) containing the human MCH-R1 using lipofectamine (Life Technologies, Cergy Pontoise, France), as previously described. One day later, cells were trypsinized, resuspended in a complete DMEM medium containing […] of geneticin and seeded at different dilutions in 96-well plates which were kept for 2 to 3 weeks in a humidified CO2 incubator. At the end of the selection period, isolated clones were picked up, amplified, and further characterized by cyclic AMP experiments. For each cell line, one positive clone was subcloned before being used for all of the cyclic AMP, [^35S]-GTPγS and receptor binding experiments necessary to characterize them. The stable HEK293 cell line expressing the human MCH-R1 was HEK-hMCH-R1.
Membrane preparations were classically made as previously described. In brief, the HEK-hMCH-R cell line was grown to confluency, harvested in PBS buffer containing 2 mM EDTA and centrifuged at 10,000× g for 5 min (4°C). The resulting pellet was suspended in 20 mM Hepes buffer (pH 7.5), containing 5 mM EGTA and homogenized using a Kinematica polytron. The homogenate was then centrifuged (95,000× g, 30 min, 4 °C) and the resulting pellet was suspended in 50 mM HEPES buffer (pH 7.5), containing 10 mM MgCl2 and 2 mM EGTA. Aliquots of membrane preparations were stored at −80 °C until use. Binding has been described in numerous publications and the test was based on Mac Donald et al.’s description. […] Nonspecific binding is determined in the presence of 0.1 μM MCH. […] The filters are dried and then counted for radioactivity in a scintillation counter (Topcount, Packard) using a scintillation cocktail (Microscint 0, Packard). The results are expressed as percentage inhibition of the control radioligand specific binding. The standard reference compound is MCH, which was tested in each experiment at 8 concentrations to obtain a competition curve from which its IC50 is calculated. The high level of assay robustness and reproducibility of each control monitored over several decades (internal data base, Eurofins) and included in every assay ensure results’ reliability even when performed only twice. […]
For orientation: Loss of bound radioactivity is the signal in a displacement assay; it reports binding, not function.

Data set [5] is classed as in vitro ADME. As to conditions: for half-life: plasma. How it is done:
Plasmas from 3 species (including commercially available human healthy donors) were adjusted to pH 7.4 if necessary. Incubations were performed at a concentration of 1 µM of the compound at 37 °C (in the presence of a final concentration of DMSO of 2.5% v/v. The incubations were stopped at 0, 15, 30, 60 and 120 min by methanol. Each time point was run in sextuplets. The sampling plates were then centrifuged (2500 rpm, 45 min, 4 °C) and the supernatants pooled. Samples were analyzed for parent compound by LC-MS/MS. The percentage of parent compound remaining at each time point relative to the 0 min sample is then calculated from LC-MS/MS peak area ratios. Then, the stability in plasma was evaluated by incubating human, rat or mouse plasma with the compound(s) as follows: the product (0.1 µM in TRIS buffer pH 7.4 0.1% BSA) was incubated with the plasma at 37 °C. The disappearance of the product was measured at 15, 45, 120, 240 and 300 min by mass spectrometry. Incubations were carried out in a robot Star (Hamilton France, Villebon-sur-Yvette, France). At each sampling time, 50 µL of the reaction medium was removed and diluted with 100 µL of acetonitrile. After centrifugation (20 min at + 4 °C, 4000 rpm), 75 µL of the supernatants was transferred into a 384 well injection plate. Ten microliters were injected onto UPLC coupled with a XEVO TQS mass spectrometer system (Waters, Milford, MA, USA). The unchanged product is quantified using a reference sample (0.1 µM) prepared during the incubation process. A second reference sample at 0.01 µM is prepared in the same conditions to verify the linearity of the detection method. The peak height (or area) is measured to calculate the half-life of the compound.

The target in data set [6] is T1, human MCH-R1. More on the design: method as in PMID 19619599, PMID 23267345. As to conditions: cited from earlier work.

Structures are written as SMILES. Read-outs that look alike come from different tables or passages of the source. Where a SMILES comes first, the peptide text is derived from it. Bridges are numbered along the chain shown (N, C = ends). Triazole bridges read from a SMILES are 1,4-linked. [ ]: non-standard residue; d: D form. The star is where a group is joined. Benzoyl(4-guanidino) = N=C(N)Nc1ccc(C(=O)*)cc1; Aha = [N-]=[N+]=NCC[C@H](N)C(=O)O; β3hV = CC(C)[C@H](N)CC(=O)O; Pra = C#CC[C@H](N)C(=O)O

T1 sequence (Q99705 whole entry): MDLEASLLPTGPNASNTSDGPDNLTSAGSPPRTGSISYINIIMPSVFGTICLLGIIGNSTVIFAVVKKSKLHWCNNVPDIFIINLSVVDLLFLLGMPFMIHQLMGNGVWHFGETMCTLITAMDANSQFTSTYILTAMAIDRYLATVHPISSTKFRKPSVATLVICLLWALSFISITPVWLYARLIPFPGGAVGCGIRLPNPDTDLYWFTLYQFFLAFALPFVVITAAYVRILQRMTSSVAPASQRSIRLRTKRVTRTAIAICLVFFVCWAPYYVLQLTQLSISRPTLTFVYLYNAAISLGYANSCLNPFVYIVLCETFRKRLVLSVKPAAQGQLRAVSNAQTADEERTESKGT

For orientation: Ki means a dissociation constant, usually derived from enzyme kinetics or from competition with a known ligand. The half-life is how long it takes for the measured level to halve. Read a low half-life as rapid decline. `CSCC[C@@H]1NC(=O)[C@@H](NC(=O)c2ccc(NC(=N)N)cc2)CCn2cc(nn2)C[C@@H](C(=O)N[C@@H](Cc2c[nH]c3ccccc23)C(=O)O)NC(=O)[C@@H]2CCCN2C(=O)[C@H](CCCNC(=N)N)NC(=O)C[C@H](C(C)C)NC(=O)[C@H](CCCNC(=N)N)NC(=O)[C@H](CC(C)C)NC1=O` [GPS15290, pGua-[N3-hAla-MLR-βhVal-RP-hPra]-W-OH] ({Benzoyl(4-guanidino)}-[Aha]MLR[β3hV]RP[Pra]W-OH; triazole 1-8): the stability on hepatocytes entry in data set [1] is reported as “mild stability”. Besides, the stability on hepatocytes entry in data set [2] is “mild stability”. Also, on human MCH-R1 [3], the “antagonistic functionality (in words)” value is listed as “high picomolar range” and the Ki was found to be 0.028 nM. Further, the “affinity at the MCH-R1 receptor (in words)” value on human MCH-R1 [4] is listed as “superior affinity”. For the same compound, in data set [5] (human), the “stability in plasma (in words)” value is on record as “most stable compound” and the half-life is at least 5 h. Moreover, in data set [5] (mouse), the “initial dose remaining after incubation in mice plasma” value is recorded as around 20%, the “stability in plasma (in words)” value is reported as “most stable compound” and the half-life came to 2.88 ± 0.15 h. Moreover, in data set [5] (rat), the “stability in plasma (in words)” value was “most stable compound” and the half-life is at least 5 h.

Regarding `CSCC[C@@H]1NC(=O)[C@@H](NC(=O)c2ccc(NC(=N)N)cc2)CSSC[C@@H](C(=O)N[C@@H](Cc2c[nH]c3ccccc23)C(=O)O)NC(=O)[C@@H]2CCCN2C(=O)[C@H](CCCNC(=N)N)NC(=O)[C@H](Cc2ccc(O)cc2)NC(=O)[C@H](C(C)C)NC(=O)[C@H](CCCNC(=N)N)NC(=O)[C@H](CC(C)C)NC1=O` [S38151, p-guanidinobenzoyl-Des-Gly(10)-MCH(7-17), reference compound] ({Benzoyl(4-guanidino)}-CMLRVYRPCW-OH; disulfide 1-9; N-terminus and C-terminus assumed), the Ki on human MCH-R1 [3] was 5 nM. Besides, the “affinity at the human MCH-R1 receptor” value on human MCH-R1 [6] is recorded as “low nanomolar range”. The half-life is 0.233 ± 0.0167 h in data set [5] (human, pH 7.4); 0.383 ± 0.03 h in data set [5] (mouse, pH 7.4); 1 ± 0.05 h in data set [5] (rat, pH 7.4).

The values above are taken from paper PMC7957705 (Molecules, 2021).
